Tested on: σ1 receptor and μ-opioid receptor
Assay: Human σ1 receptor and human μ-opioid receptor radioligand assays (dual binding scale)
Design: key to μ and σ1 dual binding: +: Both Ki-μ and Ki-σ1>=500 nM; ++: One Ki <500 nM while the other Ki is >=500 nM; +++: Both Ki-μ and Ki-σ1 <500 nM; ++++: Both Ki-μ and Ki-σ1 <100 nM
Details: joint class for both Ki; σ1: [3H](+)-pentazocine, transfected HEK-293 membranes; μ: [3H]-DAMGO, transfected CHO-K1 cell membranes
Procedure: To investigate binding properties of test compounds to human […] receptor, transfected HEK-293 membranes and [^3H](+)-pentazocine (Perkin Elmer, NET-1056), as the radioligand, were used. The assay was carried out with 7 μg of membrane suspension, 5 nM of [^3H](+)-pentazocine in either absence or presence of either buffer or 10 μM Haloperidol for total and non-specific binding, respectively. Binding buffer contained Tris-HCl 50 mM at pH 8. Plates were incubated at 37° C. for 120 minutes. After the incubation period, the reaction mix was then transferred to MultiScreen HTS, FC plates (Millipore), filtered and plates were washed 3 times with ice-cold 10 mM Tris-HCL (pH7.4). Filters were dried and counted at approximately 40% efficiency in a MicroBeta scintillation counter (Perkin-Elmer) using EcoScint liquid scintillation cocktail
To investigate binding properties of test compounds to human μ-opioid receptor, transfected CHO-K1 cell membranes and [^3H]-DAMGO (Perkin Elmer, ES-542-C), as the radioligand, were used. The assay was carried out with 20 μg of membrane suspension, 1 nM of [^3H]-DAMGO in either absence or presence of either buffer or 10 μM Naloxone for total and non-specific binding, respectively. Binding buffer contained Tris-HCl 50 mM, MgCl2 5 mM at pH 7.4. Plates were incubated at 27° C. for 60 minutes. After the incubation period, the reaction mix was then transferred to MultiScreen HTS, FC plates (Millipore), filtered and plates were washed 3 times with ice-cold 10 mM Tris-HCL (pH 7.4). Filters were dried and counted at approximately 40% efficiency in a MicroBeta scintillation counter (Perkin-Elmer) using EcoScint liquid scintillation cocktail.

Structure (SMILES)	μ and σ1 dual binding	Ki
CCC1(c2cccc(O)c2)CCCCN(CCN2CCN(C)CC2)C1 (stereo not shown) [Example 6, 3-(3-Ethyl-1-(2-(4-methylpiperazin-1-yl)ethyl)azepan-3-yl)phenol]	++	
CCC1(c2cccc(O)c2)CCCCN(CCO)C1 (stereo not shown) [Example 10, 3-(3-ethyl-1-(2-hydroxyethyl)azepan-3-yl)phenol]	++	
CCC1(c2cccc(O)c2)CCCCN(CCOC(C)C)C1 (stereo not shown) [Example 12, 3-(3-ethyl-1-(2-isopropoxyethyl)azepan-3-yl)phenol]		< 0.5 µM
CCC1(c2cccc(O)c2)CCCCN(CCOC2CC2)C1 (stereo not shown) [Example 18, 3-(1-(2-cyclopropoxyethyl)-3-ethylazepan-3-yl)phenol]	++	
CCC1(c2cccc(OC)c2)CCCCN(CCN2CCN(C)CC2)C1 (stereo not shown) [Example 1, 3-Ethyl-3-(3-methoxyphenyl)-1-(2-(4-methylpiperazin-1-yl)ethyl)azepane]		≥ 0.5 µM
CCC1(c2cccc(O)c2)CCCCN(CCN2CCOCC2)C1 (stereo not shown) [Example 8, 3-(3-ethyl-1-(2-morpholinoethyl)azepan-3-yl)phenol]	++	
CCC1(c2cccc(OC)c2)CCCCN(CCN2CCCCC2)C1 (stereo not shown) [Example 4, 3-ethyl-3-(3-methoxyphenyl)-1-(2-(piperidin-1-yl)ethyl)azepane]		≥ 0.5 µM
CCC1(c2cccc(O)c2)CCCCN(CCN2CCN(c3ccccc3)CC2)C1 (stereo not shown) [Example 7, 3-(3-ethyl-1-(2-(4-phenylpiperazin-1-yl)ethyl)azepan-3-yl)phenol]	++	
CCOCCN1CCCCC(CC)(c2cccc(OC)c2)C1 (stereo not shown) [Example 5, 1-(2-ethoxyethyl)-3-ethyl-3-(3-methoxyphenyl)azepane]		≥ 0.5 µM
CCC1(c2cccc(O)c2)CCCCN(CC(=O)N2CCOCC2)C1 (stereo not shown) [Example 16, 2-(3-ethyl-3-(3-hydroxyphenyl)azepan-1-yl)-1-morpholinoethanone]		≥ 0.5 µM
CCOCCN1CCCC[C@](CC)(c2cccc(O)c2)C1 (stereo in doubt) [Example 21, (R)-3-(1-(2-ethoxyethyl)-3-ethylazepan-3-yl)phenol]	++	
CCC1(c2cccc(OC)c2)CCCCN(CCN2CCOCC2)C1 (stereo not shown) [Example 3, 4-(2-(3-Ethyl-3-(3-methoxyphenyl)azepan-1-yl)ethyl)morpholine]		≥ 0.5 µM
CCC1(c2cccc(O)c2)CCCCN(CC(=O)N2CCCCC2)C1 (stereo not shown) [Example 13, 2-(3-ethyl-3-(3-hydroxyphenyl)azepan-1-yl)-1-(piperidin-1-yl)ethanone]	++	
CCC1(c2cccc(O)c2)CCCCN(CCOc2cccnc2)C1 (stereo not shown) [Example 14, 3-(3-ethyl-1-(2-(pyridin-3-yloxy)ethyl)azepan-3-yl)phenol]	++	
CCOCCN1CCCCC(CC)(c2cccc(O)c2)C1 (stereo not shown) [Example 11, 3-(1-(2-Ethoxyethyl)-3-ethylazepan-3-yl)phenol]		< 0.1 µM
CCOCCN1CCCCC(CC)(c2cccc(N)c2)C1 (stereo not shown) [Example 22, 3-[1-(2-Ethoxyethyl)-3-ethylazepan-3-yl]aniline]		≥ 0.5 µM
CCC1(c2cccc(O)c2)CCCCN(CCOCC(C)(C)O)C1 (stereo not shown) [Example 19, 3-(3-ethyl-1-(2-(2-hydroxy-2-methylpropoxy)ethyl)azepan-3-yl)phenol]	++	
CCC1(c2cccc(O)c2)CCCCN(CCN2CCCCC2)C1 (stereo not shown) [Example 9, 3-(3-ethyl-1-(2-(piperidin-1-yl)ethyl)azepan-3-yl)phenol]		< 0.5 µM
CCOCCN1CCCCC(CC)(c2cccc(NS(=O)(=O)C(C)C)c2)C1 (stereo not shown) [Example 24, N-{3-[1-(2-Ethoxyethyl)-3-ethylazepan-3-yl]phenyl}propane-2-sulfonamide]		≥ 0.5 µM
CCOCCN1CCCCC(CC)(c2cccc(NS(C)(=O)=O)c2)C1 (stereo not shown) [Example 23, N-{3-[1-(2-Ethoxyethyl)-3-ethylazepan-3-yl]phenyl}methanesulfonamide]		≥ 0.5 µM
CCC1(c2cccc(O)c2)CCCCN(CCOC)C1 (stereo not shown) [Example 17, 3-(3-ethyl-1-(2-methoxyethyl)azepan-3-yl)phenol]	++	
CCOCCN1CCCC[C@@](CC)(c2cccc(O)c2)C1 (stereo in doubt) [Example 20, (S)-3-(1-(2-ethoxyethyl)-3-ethylazepan-3-yl)phenol]	++	
